Measurements as given in patent publication US10323017B2, “Antioxidants and methods to maximize performance” (University of Ottawa, priority 2015, dated 2019).

Assays:
[1] = Hexadecane autoxidation at 160° C. (hydroperoxide formation), stirred flow reactor, initiated by tetralin hydroperoxide; details: for effect of added palmitic acid on inhibitory activity: 1 mM palmitic acid; for effect of added base 2,4,6-tri-tert-butylpyridine on inhibition of autoxidation: TTBP 1 mM vs. no base
Procedure: To evaluate the effect of an added sacrificial base on the high-temperature radical-trapping activity of antioxidants, autoxidations of n-hexadecane were carried out at 160° C. in a stirred flow reactor in the absence of or presence of a base, where a constant positive pressure of O2 was used to stir the medium and prevent mass transfer from becoming rate limiting (Igarashi, J., et al., J. Am. Chem. Soc. 1992, 114, 7727; Jensen, R.; et al., J. Am. Chem. Soc. 1979, 101, 7574). Tetralin hydroperoxide (10 mM) was used as a radical initiator since inhibited autoxidations in the absence of an initiator were very slow. At regular intervals, aliquots of the reaction mixture were removed, cooled and the concentration of hydroperoxide products determined by reaction with a developed fluorogenic phosphine (Hanthorn, J. J., et al., Chem. Commun. 2012, 48, 10141). Autoxidations were followed for the first 2% of the reaction, based on hydroperoxide formation, since beyond ca. 3% conversion, the hydroperoxide yield begins to decrease and highly complex mixtures of ketones, alcohols, carboxylic acids and esters arise.
n-Hexadecane (100 mL) was thoroughly degassed with argon and heated to 160° C. while argon was continuously bubbled through the liquid. […] For those experiment where acid or base was present, as noted in the figure captions, they were also added at this point. Aliquots (0.5 mL) were removed every 5 minutes, and allowed to cool to room temperature for analysis. Four duplicates (30 μL) of each sample were loaded into separate wells of a 96-well microplate and the automated reagent dispenser of the microplate reader was used to dilute each sample with tert-amyl alcohol (200 μL) and a solution of fluorogenic phosphine dye solution (20 μL of a 250 μM stock solution in acetonitrile) immediately before reading. The plate was stirred for 8 seconds, allowed to rest for 2 more seconds, and the fluorescence of each well was measured every second for 60 seconds (absorption at 340; emission at 425). The concentration of hydroperoxide was determined from the rate of phosphine oxidation using the rate constant for the reaction of the dye with secondary hydroperoxides in tert-amyl alcohol (k=1.2 M^−1s^−1) assuming pseudo-first-order kinetics. See sample data from an uninhibited autoxidation and one inhibited with diarylamine 4 alongside analogous experiments in the absence of the initiator tetralin hydroperoxide, or O2 (FIGS. 2C-E). Further results are presented in FIGS. 7 to 17 for hexadecane autoxidations and FIGS. 18 and 19 for tetralin autooxidations in the presence and absence of antioxidants, and at varying pH. FIGS. 14-17 correspond to hexadecane autoxidations carried out for diarylamine 4 in the presence of four different bases. FIGS. 7-13 correspond to hexadecane autoxidations carried out for compounds 1-7 and 20 in the presence and absence of a base, specifically, 2,4,6-tri-tert-butylpyridine. FIG. 5A corresponds to hexadecane autoxidations carried out for diarylamine 4 and 7 in the presence and absence of palmitic acid.

[2] = pKa measurement by titration of hydrochloride salts with NaOH; assay type: physicochemical; details: 4:1 (v:v) CH3CN:H2O solution of the hydrochloride salt; in 4:1 CH3CN:H2O; read-out: pKa of the conjugate acid
Procedure: Solutions of the hydrochloride salts of diarylamines 1-7 (1 mM) were made up in 4:1 CH3CN:H2O (3.0 mL) and the pH was measured using an Accument Electrode microbe referenced to Ag/Ag^+ as a function of added volumes of NaOH (10 mM). […] The titration curves for the diarylamines are shown in FIGS. 6A and 6B (averages of triplicate experiments), and the pKas reported in the manuscript correspond to the pH when 0.5 molar equivalents of NaOH were added to the solution.

[3] = Diarylamine stability to oxygen at 160° C. in n-hexadecane; assay type: physicochemical
Procedure: n-Hexadecane (100 mL) was thoroughly degassed with argon and then heated to 160° C. while argon was continuously bubbled through the liquid. Once the temperature stabilized, 2.5 mmol of diarylamines 1-7 were added to the solution and the flow of argon was replaced with 02. Aliquots (100 μL) were removed every 10 minutes, and added to 900 μL of a 2.2 mM solution of benzyl alcohol (internal standard) in 2% isopropanol/hexanes (HPLC grade). Samples were analysed using a Waters 2695 Alliance HPLC at a flow rate of 2.1 mL min^−1 (8.0% PrOH/hexanes) on a Sunfire Silica column (5 μm, 4.6×250 mm) and determined by their UV absorbance.

[4] = Tetralin autoxidation at 70° C. initiated by azobis(α-tetralin); details: hexanoic acid 50 μM, antioxidant 2 μM
Procedure: Fresh tetralin was prepared by passing it through a column of silica. Tetralin (1.0 mL) was added to a glass vial, followed by chlorobenzene (1.0 mL). A magnetic Teflon-coated stir bar was added, and the vial was capped with a rubber septum. The vial was then placed in a heating block at 70° C. for 5 minutes. Antioxidant (4, 7) (0.002 mmol) were added. For those experiment where acid was present, as noted in the figure captions, hexanoic acid (0.050 mmol) was also added at this point. Azobis(α-tetralin) (0.1 mmol) was added as the initiator. The solution was stirred for 30 s and the first sample was taken. 100 μL samples were taken at regular intervals and added to 900 μL of a solution containing 2.2 mM benzyl alcohol, 10 mM butylated-hydroxytoluene, and 10 mM triphenylphosphine in 2% isopropanol/hexanes (HPLC grade). Samples were analysed using a Waters 2695 Alliance HPLC (2.0% iPrOH/hexanes, 1.6 ml min^−1; 10 min; Sunfire Silica column (5 μm, 4.6×250 mm)) and analysed by UV absorbance.

[5] = Peroxyl radical clock kinetics; details: double reciprocal plot
Procedure: Peroxyl radical clocking experiments (to determine the inhibition rate constant kinh) for compound 5 were carried out according to our previously published reports (see Hanthorn, J., et al. J. Org. Chem. 2012, 77, 6895). Inhibition rate constants of the other compounds are as reported previously. A double reciprocal plot was used to obtain km=2.4×10^7 M^−1s^−1 for compound 5.

[6] = Cyclic voltammetry (standard potential); assay type: physicochemical; details: 1 mM in CH3CN containing 0.1 M Bu4NPF6
Procedure: A standard potential for diarylamine 5 was measured from its cyclic voltammagram obtained using a BASi potentiostat (available from BASi Analytical Instruments, West La Fayette, Ind., USA) with a glassy carbon working electrode, a platinum counter electrode and a Ag/AgNO3 reference electrode. The diarylamine was dissolved in degassed acetonitrile containing 0.1 M tetrabutylammonium hexafluorophosphate as supporting electrolyte and the current recorded in the range of 0-1 V at a scan rate of 200 mV/s. Standard potentials of the other compounds are reported in previous publications. A cyclic voltammogram of diarylamine 5 (1 mM in CH3CN containing 0.1 M Bu4NPF6) vs. Ag/Ag^+ gave E^0=0.84 V vs. NHE.

[7] = TTBP 1 mM, 40 μM antioxidant, 160° C.

SMILES | inhibition of autoxidation in the presence of added base, compared with 7 [1, 7] | pKa [2] | effect of added palmitic acid on inhibitory activity ([1]; 40 μM antioxidant, 160° C.) | effect of added base 2,4,6-tri-tert-butylpyridine on inhibition of autoxidation ([1]; 40 μM antioxidant, 160° C.) | other results
CCCCCCN(CCCCCC)c1ccc(Nc2ccccc2)cn1 [Compound 3, N^2,N^2-Dihexyl-N^5-phenylpyridine-2,5-diamine] | superior to 7 | 8.4 ± 0.1 | – | – | stability to O2 [3]: relatively unstable
c1ccc(Nc2ccccc2)cc1 [Compound 7, reference compound] | – | 4.6 ± 0.3 | unchanged | no effect | effect of added base 2,4,6-tri-tert-butylpyridine on inhibition of autoxidation ([1]; 40 μM antioxidant, 160° C., listed as diphenylamine): did not impact the reactivity; effect of added acid on antioxidant activity [4]: does not affect the activity
CCCCCCCCN(CCCCCCCC)c1ncc(Nc2ccc(C(C)(C)C)cc2)cn1 [Compound 20, N^5-(4-(tert-butyl)phenyl)-N^2,N^2-dioctylpyrimidine-2,5-diamine] | – | – | – | – | stability and reactivity compared with compound 4 ([1]; 40 μM, with and without TTBP 1 mM, 160° C. (FIG. 9)): slightly increased stability and reactivity
CCCCCCN(CCCCCC)c1ncc(Nc2ccccc2)cn1 [Compound 4, N^2,N^2-Dihexyl-N^5-phenylpyrimidine-2,5-diamine] | particularly good | 8.2 ± 0.2 | disrupt the inhibitory activity | unprecedented inhibited period | difference in Δt2% (delay to reach [ROOH]=2%) relative to 7 ([1]; 40 μM antioxidant, TTBP 1 mM, 160° C.): 12.5 fold; effect of other bases on activity ([1]; cesium carbonate, potassium carbonate, or Primene 81-R (1 mM), 160° C.): rescued
CCCCN(CCCC)c1ncc(Nc2cnc(N(CCCC)CCCC)nc2)cn1 [Compound 2, N^2,N^2-Dibutyl-N^5-(2-(dibutylamino)pyrimidin-5-yl)pyrimidine-2,5-diamine] | particularly good | 8.8 ± 0.1 | – | – | –
CCCCCCc1ncc(Nc2cnc(N(CCCC)CCCC)nc2)cn1 [Compound 5, N^2,N^2-Dibutyl-N^5-(2-hexylpyrimidin-5-yl)pyrimidine-2,5-diamine] | particularly good | 8.3 ± 0.1 | – | – | inhibition rate constant kinh (printed km) [5]: 2.4e+07 M⁻¹ s⁻¹; standard potential E^0 [6]: 0.84 V vs. NHE
